The supplement of paper PMC13380429
± gives the standard deviation of the averaged measurements.

Key:
Conditions in all cases: 72 h
Caco-2 [1] = test: cell viability relative to DMSO; higher = less toxic
Calu-3 [2] = test: as above
HepG2 [3] = test: as above
U2OS [4] = test: as above
Vero E6 [5] = test: as above
Caco-2 [6] = test: relative viability EC50 (midpoint between 100% and the lowest measured viability); higher = less toxic
Calu-3 [7] = test: as above
HepG2 [8] = test: as above
U2OS [9] = test: as above
Vero E6 [10] = test: as above
Caco-2 [11] = test: drug sensitivity score (DSS) for viability; higher = more toxic; extreme values may be limits of the assay
Calu-3 [12] = test: as above
HepG2 [13] = test: as above
U2OS [14] = test: as above
Vero E6 [15] = test: as above

Compound	cell viability (Caco-2 [1]; 1 nM) [%]	cell viability (Caco-2 [1]; 10 nM) [%]	cell viability (Caco-2 [1]; 100 nM) [%]	cell viability (Caco-2 [1]; 1000 nM) [%]	cell viability (Caco-2 [1]; 10000 nM) [%]	cell viability (Calu-3 [2]; 1 nM) [%]	cell viability (Calu-3 [2]; 10 nM) [%]	cell viability (Calu-3 [2]; 100 nM) [%]	cell viability (Calu-3 [2]; 1000 nM) [%]	cell viability (Calu-3 [2]; 10000 nM) [%]	cell viability (HepG2 [3]; 1 nM) [%]	cell viability (HepG2 [3]; 10 nM) [%]	cell viability (HepG2 [3]; 100 nM) [%]	cell viability (HepG2 [3]; 1000 nM) [%]	cell viability (HepG2 [3]; 10000 nM) [%]	cell viability (U2OS [4]; 1 nM) [%]	cell viability (U2OS [4]; 10 nM) [%]	cell viability (U2OS [4]; 100 nM) [%]	cell viability (U2OS [4]; 1000 nM) [%]	cell viability (U2OS [4]; 10000 nM) [%]	cell viability (Vero E6 [5]; 1 nM) [%]	cell viability (Vero E6 [5]; 10 nM) [%]	cell viability (Vero E6 [5]; 100 nM) [%]	cell viability (Vero E6 [5]; 1000 nM) [%]	cell viability (Vero E6 [5]; 10000 nM) [%]	relative viability EC50 (Caco-2 [6]) [µM]	relative viability EC50 (Calu-3 [7]) [µM]	relative viability EC50 (HepG2 [8]) [µM]	relative viability EC50 (U2OS [9]) [µM]	relative viability EC50 (Vero E6 [10]) [µM]	drug sensitivity score (Caco-2 [11])	drug sensitivity score (Calu-3 [12])	drug sensitivity score (HepG2 [13])	drug sensitivity score (U2OS [14])	drug sensitivity score (Vero E6 [15])
COc1ccc2c(c1)CN(C)CC2c1ccc(Cl)c(Cl)c1 (stereo not given) [diclofensine]	96.6	94	86	95.6	83.5	103	106	107	101	87.9	101	98.8	95.9	103	97.2	99.3	103	93.3	100	93.2	96	99.3	94.5	95.7	91.1	> 10	> 10	> 10	> 10	> 10	0.6	0	0	0	0
C[C@H]1c2cccc(O)c2C(=O)C2=C(O)[C@]3(O)C(=O)C(C(N)=O)=C(O)[C@@H](N(C)C)[C@@H]3[C@@H](O)[C@@H]21 [doxycycline]	90.2 ± 11	96.8 ± 0.85	92.6 ± 3.1	90.1 ± 5.4	88 ± 0.92	95.8 ± 5.4	108 ± 3.1	107 ± 3.3	104 ± 2.9	99.8 ± 8	100 ± 2.8	94.3 ± 5.3	98.7 ± 9.5	108 ± 21	94.8 ± 4.3	96.5 ± 1.9	98.8 ± 1.1	96.2 ± 2	101 ± 2.3	98.6 ± 4	101 ± 2.9	95.8 ± 4.3	101 ± 4.5	97.8 ± 9.4	100 ± 1.8	> 10	> 10	> 10	> 10	> 10	0.05 ± 0.071	0	0	0	0
N[C@@]1(C(=O)O)CC[C@H]2[C@H](C(=O)O)[C@H]21 [eglumetad]	107	104	93.8	102	97.2	95.7	102	97.3	93.2	104	113	92.5	102	97.6	116	101	101	97.3	96.6	96	99	99	94.9	100	96.6	> 10	> 10	> 10	> 10	> 10	0	0	0	0	0
CSc1ccc(C(=O)/C=C/c2cc(C)c(OC(C)(C)C(=O)O)c(C)c2)cc1 [elafibranor]	99.5	92.5	103	90.5	84.6	101	97	100	108	114	101	108	93.5	99.1	96.3	99.7	94	97.7	98.1	94.3	90.8	97	89.5	91.1	98.5	> 10	> 10	> 10	> 10	> 10	1	0	0	0	0
Cc1cc(O)c2c(c1)C(=O)c1cc(O)cc(O)c1C2=O [emodin]	95.4	91	92.8	93.9	97	93.6	104	95	94.2	102	105	96.7	105	98.5	106	94.2	103	93.8	101	103	103	95	97.1	100	106	> 10	> 10	> 10	> 10	> 10	0	0	0	0	0
COc1cc(C)nc(-n2nc(C)cc2OC)n1 [epirizole]	83.5	92.7	82.3	97.4	89	91.9	92.2	88.3	97.3	86	103	96.7	105	94	97.8	95.1	101	94.8	99.8	97	112	99.3	110	105	94.9	> 10	> 10	> 10	> 10	> 10	0	0	0	0	0
C[C@@H](O)[C@H]1C(=O)N2C(C(=O)O)=C(S[C@@H]3CN[C@H](C(=O)Nc4cccc(C(=O)O)c4)C3)[C@H](C)[C@H]12 [ertapenem]	101	114	84.3	96.3	85.9	98.2	99.7	94.4	89.7	97.8	90.9	97.4	93.2	103	91.9	94.7	98.9	96.8	101	99.5	106	98.3	106	100	103	> 10	> 10	> 10	> 10	> 10	2.7	0	0	0	0
CN1CC[C@@]2(C)c3cc(O)ccc3N(C)[C@@H]12 [eseroline-(-)]	103	97.9	105	89.6	77.5	101	101	99.1	112	84.6	98.2	103	110	109	83.7	106	105	99.1	101	96.4	96.3	97.9	96.1	94.2	96	> 10	> 10	> 10	> 10	> 10	1.9	0.1	0.2	0	0
CCc1cc(C(N)=S)ccn1 [ethionamide]	95.7	92.7	96.5	92.6	102	90.8	92.2	98.7	93	95.7	100	90.6	97.9	102	102	97.8	94	97.1	94.7	96.3	96.7	101	101	91.5	99.7	> 10	> 10	> 10	> 10	> 10	0	0	0	0	0
CCOC(=O)c1ccc(O)cc1 [ethyl-paraben]	101	94.3	101	99.2	100	96.6	93	106	97.3	92	108	102	101	94.7	97.8	96.3	97	107	98.3	106	102	99.7	98.9	104	99.8	> 10	> 10	> 10	> 10	> 10	0	0	0	0	0
COc1cc([C@@H]2c3cc4c(cc3[C@@H](O[C@@H]3O[C@@H]5CO[C@@H](C)O[C@H]5[C@H](O)[C@H]3O)[C@H]3COC(=O)[C@H]23)OCO4)cc(OC)c1OP(=O)(O)O [etoposide-phosphate]	81.7	92.6	91.9	102	107	107	106	98.3	85.7	47.1	88.6	86.8	85.4	59.7	29.5	95.1	104	94.9	99.7	108	93.3	97.6	92.7	86.7	88.3	> 10	1.49	0.478	> 10	> 10	0	5	10	0	0.3
C[C@@H](O)[C@H]1C(=O)N2C(C(=O)O)=C([C@H]3CCCO3)S[C@H]12 [faropenem]	95	91	101	100	95	106	96.5	99.6	98	105	103	99.4	104	103	98.7	101	101	94.6	96.6	98.8	97.2	99.5	102	96.8	97.1	> 10	> 10	> 10	> 10	> 10	0	0	0	0	0
CN1CC(=O)N=C1NC(=O)Nc1cccc(Cl)c1 [fenobam]	93.1	94.4	90.1	103	97.7	102	101	100	105	97.1	110	99.4	112	97	103	96.6	106	98.2	102	98.3	100	97	99.5	100	101	> 10	> 10	> 10	> 10	> 10	0	0	0	0	0
